Patent US20240376113A1 (Volastra Therapeutics, Inc., priority 2020, published 2024)
Where two headings read alike, the source gives them in different places.

Tests used:
[1] = molecular target: ENPP1 on MDA-MB-231 cells (Homo sapiens (Human), UniProt P22413); experiment: Inhibition of ENPP1 hydrolysis of AMP p-nitrophenyl ester on MDA-MB-231 cells (Assay 2); assay type: cell-based
Protocol: Inhibition of ENPP1 Hydrolysis of AMP p-Nitrophenyl Ester on MDA-MB-231 Cells (Assay 2)
ENPP1 is normally expressed on the human metastatic breast cancer cell line MDA-MB-231. Hydrolysis of the p-nitrophenyl ester of AMP (pNP-AMP), an isostere of ATP, is selectively catalyzed by ENPP1 in the supernatant of MDA-MB-231 cell cultures. Inhibition of the hydrolysis of pNP-AMP by MDA-MB-231 at pH 7.4 and 37° C. is a good model of physiologically relevant activity of membrane-bound ENPP1 at disease-relevant expression levels.
MDA-MB-231 cells were harvested using TypLE Express Enzyme digestion and suspended in 100 μL of Leibovitz's L-15 Medium, 20% FBS, seeding the cells in a 96-well assay plate with 4.5×10^4 cells/well. Cells were incubated at 37 C with 1% CO2 for 24 h. In a separate dilution plate, 2× of top dose of compound was prepared in phenol-red free 1640 medium without FBS and then 1:3 serial diluted in the same medium. The cell culture medium of L15 medium was aspirated carefully and cells were washed with PBS once, and 50 μL per well of test compound or DMSO blank are added to the assay plate. Substrate mix (50 μL; 0.5 mM pNP-AMP in phenol-red free 1640 media without FBS) was added for a pNP-AMP final concentration of 0.25 mM. The system was incubated at 37° C. for 3 h.

ENPP-1 ECD = ENPP-1 ECD (Homo sapiens (Human), UniProt P22413); experiment: Inhibition of ENPP1 hydrolysis of 2′,3′-cGAMP (Assay 1)
Protocol: Test compounds were plated in a 3× dilution scheme in a 384 well plate.

[2] = pNP-AMP 0.25 mM, MDA-MB-231 cells, 37° C. 3 h, KI,app from IC50 via Cheng/Prusoff, read-out: Assay 2 KI, app
[3] = pNP-AMP 0.25 mM, MDA-MB-231 cells, 37° C. 3 h, KI,app from IC50 via Cheng/Prusoff, read-out: Assay 2 KI,app values (class)
[4] = read-out: Assay 1 KI values (class), 2,3-cGAMP 24 μM, AMP-Glo luminescence, KI from IC50 via Cheng/Prusoff
[5] = read-out: Assay 1 KI, 2,3-cGAMP 24 μM, AMP-Glo luminescence, KI from IC50 via Cheng/Prusoff
[6] = Assay 1 KI values (class), 2,3-cGAMP 24 μM, AMP-Glo luminescence, KI from IC50 via Cheng/Prusoff

Sequence of ENPP1 on MDA-MB-231 cells (P22413 whole entry): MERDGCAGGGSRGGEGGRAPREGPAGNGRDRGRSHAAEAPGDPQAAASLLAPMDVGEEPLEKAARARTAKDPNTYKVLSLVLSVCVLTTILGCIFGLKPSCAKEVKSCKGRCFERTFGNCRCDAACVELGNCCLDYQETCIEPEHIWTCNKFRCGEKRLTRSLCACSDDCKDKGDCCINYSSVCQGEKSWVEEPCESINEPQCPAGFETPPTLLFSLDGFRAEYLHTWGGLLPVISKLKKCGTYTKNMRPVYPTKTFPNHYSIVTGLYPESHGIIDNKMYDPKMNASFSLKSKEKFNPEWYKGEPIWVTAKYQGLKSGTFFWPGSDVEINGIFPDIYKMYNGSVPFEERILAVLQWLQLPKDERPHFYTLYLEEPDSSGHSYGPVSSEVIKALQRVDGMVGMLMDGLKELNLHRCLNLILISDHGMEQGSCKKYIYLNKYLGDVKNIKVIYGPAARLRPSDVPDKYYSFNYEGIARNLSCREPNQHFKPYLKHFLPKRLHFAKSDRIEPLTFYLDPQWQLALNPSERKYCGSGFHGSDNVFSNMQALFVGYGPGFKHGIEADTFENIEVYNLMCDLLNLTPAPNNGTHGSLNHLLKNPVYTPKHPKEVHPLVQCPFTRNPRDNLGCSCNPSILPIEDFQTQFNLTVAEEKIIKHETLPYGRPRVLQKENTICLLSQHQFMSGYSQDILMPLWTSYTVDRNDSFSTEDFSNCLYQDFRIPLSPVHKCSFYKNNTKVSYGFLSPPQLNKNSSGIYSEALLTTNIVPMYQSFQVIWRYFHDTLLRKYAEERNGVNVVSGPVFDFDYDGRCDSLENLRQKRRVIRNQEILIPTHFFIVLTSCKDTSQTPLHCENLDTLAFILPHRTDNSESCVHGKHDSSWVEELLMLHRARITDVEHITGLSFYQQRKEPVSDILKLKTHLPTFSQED
Sequence of ENPP-1 ECD (P22413 98-925): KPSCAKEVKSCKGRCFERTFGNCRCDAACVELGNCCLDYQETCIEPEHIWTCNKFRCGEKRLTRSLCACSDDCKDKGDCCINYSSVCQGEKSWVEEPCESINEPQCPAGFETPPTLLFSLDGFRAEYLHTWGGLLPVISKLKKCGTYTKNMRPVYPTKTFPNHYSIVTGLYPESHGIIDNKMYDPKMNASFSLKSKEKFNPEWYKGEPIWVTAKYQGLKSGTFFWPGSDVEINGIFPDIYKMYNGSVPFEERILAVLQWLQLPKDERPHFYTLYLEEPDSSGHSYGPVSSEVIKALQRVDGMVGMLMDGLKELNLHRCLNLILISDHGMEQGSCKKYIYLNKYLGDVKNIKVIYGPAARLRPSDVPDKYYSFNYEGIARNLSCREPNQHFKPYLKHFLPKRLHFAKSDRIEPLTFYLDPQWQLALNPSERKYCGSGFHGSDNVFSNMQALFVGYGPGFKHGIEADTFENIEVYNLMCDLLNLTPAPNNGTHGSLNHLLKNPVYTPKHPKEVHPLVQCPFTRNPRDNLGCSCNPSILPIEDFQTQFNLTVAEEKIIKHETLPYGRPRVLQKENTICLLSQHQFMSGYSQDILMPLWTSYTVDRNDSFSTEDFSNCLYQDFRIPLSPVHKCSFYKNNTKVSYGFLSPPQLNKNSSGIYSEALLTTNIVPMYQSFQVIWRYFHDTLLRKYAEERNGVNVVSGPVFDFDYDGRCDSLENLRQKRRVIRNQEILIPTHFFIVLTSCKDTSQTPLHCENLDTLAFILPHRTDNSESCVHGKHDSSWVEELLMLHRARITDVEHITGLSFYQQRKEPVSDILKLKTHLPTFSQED

| SMILES | Ki [1, 2] [nM] | Ki [1, 3] [nM] | Ki (ENPP-1 ECD; [4]) [nM] | Ki (ENPP-1 ECD; [5]) [nM] | Ki (ENPP-1 ECD; [6]) [nM] | Ki [1] [nM] | Ki (ENPP-1 ECD) [nM] |
| --- | --- | --- | --- | --- | --- | --- | --- |
| Cc1nc2ncnn2c(N(C)C)c1Cc1cccc(N)c1 | – | – | – | – | – | 1400 | 110 |
| Cc1nc2ncnn2c(N(C)C)c1Cc1ccc([S@@](C)(=N)=O)cc1 (single isomer, unassigned) [Compound 1b] | 1.67 | < 10 | < 3 | 0.015 | – | – | – |
| Cc1nc2ncnn2c(N2CCCC2)c1Cc1ccc([S@](C)(=N)=O)cc1 (single isomer, unassigned) [Compound 8a] | 9.73 | < 10 | < 3 | 0.054 | – | – | – |
| Cc1nc2ncnn2c(N(C)C)c1Cc1ccc(S(C)(=N)=O)cc1 (centres unmarked) [Compound 1, (4-((7-(dimethylamino)-5-methyl-[1,2,4]triazolo[1,5-a]pyrimidin-6-yl)methyl)phenyl)(imino)(methyl)-λ^6-sulfanone] | 7.47 | < 10 | – | 0.109 | < 3 | – | – |
| Cc1nc2ncnn2c(N(C)C)c1Cc1ccc(S(N)(=O)=O)cc1 [Compound 2, 4-((7-(dimethylamino)-5-methyl-[1,2,4]triazolo[1,5-a]pyrimidin-6-yl)methyl)benzenesulfonamide] | 14.4 | > 10 | – | 0.158 | < 3 | – | – |
| Cc1nc2ncnn2c(N(C)C)c1Cc1ccc(P(=O)(O)O)cc1 [Compound 5, (4-{[7-(dimethylamino)-5-methyl-[1,2,4]triazolo[1,5-a]pyrimidin-6-yl]methyl}phenyl)phosphonic acid] | 7.94 | < 10 | – | 0.851 | < 3 | – | – |
| Cc1nc2ncnn2c(N2CCCC2)c1Cc1ccc(S(C)(=N)=O)cc1 (centres unmarked) [Compound 8, imino(methyl)(4-((5-methyl-7-(pyrrolidin-1-yl)-[1,2,4]triazolo[1,5-a]pyrimidin-6-yl)methyl)phenyl)-λ^6-sulfanone] | 7.79 | < 10 | – | 0.0718 | < 3 | – | – |
| Cc1nc2ncnn2c(N2CCCC2)c1Cc1ccc(S(N)(=O)=O)cc1 [Compound 9, 4-((5-methyl-7-(pyrrolidin-1-yl)-[1,2,4]triazolo[1,5-a]pyrimidin-6-yl)methyl)benzenesulfonamide] | 32.4 | > 10 | – | 0.569 | < 3 | – | – |
| Cc1nc2ncnn2c(N2CCC2)c1Cc1ccc(S(C)(=N)=O)cc1 (centres unmarked) [Compound 10, (4-((7-(azetidin-1-yl)-5-methyl-[1,2,4]triazolo[1,5-a]pyrimidin-6-yl)methyl)phenyl)(imino)(methyl)-λ^6-sulfanone] | 224 | > 10 | – | 3.12 | 3 to 300 | – | – |
| CCN(C)c1c(Cc2ccc(S(C)(=N)=O)cc2)c(C)nc2ncnn12 (centres unmarked) [Compound 12, (4-((7-(ethyl(methyl)amino)-5-methyl-[1,2,4]triazolo[1,5-a]pyrimidin-6-yl)methyl)phenyl)(imino)(methyl)-λ^6-sulfanone] | 48.9 | > 10 | – | 0.479 | < 3 | – | – |
| Cc1nc2ncnn2c(N2CCCCC2)c1Cc1ccc(S(C)(=N)=O)cc1 (centres unmarked) [Compound 16, imino(methyl)(4-((5-methyl-7-(piperidin-1-yl)-[1,2,4]triazolo[1,5-a]pyrimidin-6-yl)methyl)phenyl)-λ^6-sulfanone] | 14.9 | > 10 | – | 0.0814 | < 3 | – | – |
| Cc1nc2ncnn2c(N2CCCCC2)c1Cc1ccc([S@](C)(=N)=O)cc1 [Compound 16a] | 11.9 | > 10 | < 3 | 0.0627 | – | – | – |
| Cc1cc2ncnn2c(N(C)C)c1Cc1ccc(S(C)(=N)=O)cc1 (centres unmarked) [Compound 28, (4-{[5-(dimethylamino)-7-methyl-[1,2,4]triazolo[1,5-a]pyridin-6-yl]methyl}phenyl)(imino)methyl-λ^6-sulfanone] | 1.06 | < 10 | – | < 0.027 | < 3 | – | – |
| Cc1nc2nccn2c(N(C)C)c1Cc1ccc(S(C)(=N)=O)cc1 (centres unmarked) [Compound 29, (4-{[5-(dimethylamino)-7-methylimidazo[1,2-a]pyrimidin-6-yl]methyl}phenyl)(imino)methyl-λ^6-sulfanone] | 12.2 | > 10 | – | 0.252 | < 3 | – | – |
| Cc1nc2ncnn2c(N2CCCC2)c1Cc1ccc(P(=O)(O)O)cc1 [Compound 36, (4-{[5-methyl-7-(pyrrolidin-1-yl)-[1,2,4]triazolo[1,5-a]pyrimidin-6-yl]methyl}phenyl)phosphonic acid] | 5.68 | < 10 | – | 0.512 | < 3 | – | – |
| [2H]C([2H])([2H])N(c1c(Cc2ccc(S(C)(=N)=O)cc2)c(C)nc2ncnn12)C([2H])([2H])[2H] (centres unmarked) [Compound 49, [4-[{7-[di(^2H3)methylamino]-5-methyl-[1,2,4]triazolo[1,5-a]pyrimidin-6-yl}methyl)phenyl](imino)methyl-λ^6-sulfanone] | 4.7 | < 10 | – | 0.0621 | < 3 | – | – |
| CCc1nc2ncnn2c(N2CCCC2)c1Cc1ccc(S(C)(=N)=O)cc1 (centres unmarked) [Compound 50, (4-{[5-ethyl-7-(pyrrolidin-1-yl)-[1,2,4]triazolo[1,5-a]pyrimidin-6-yl]methyl}phenyl)(imino)methyl-λ^6-sulfanone] | 15.7 | > 10 | – | – | < 3 | – | – |
| Cc1nc2ncnn2c(N(C)C)c1-c1ccc2c(c1)CN(S(N)(=O)=O)CC2 [Compound 69, 7-[7-(dimethylamino)-5-methyl-[1,2,4]triazolo[1,5-a]pyrimidin-6-yl]-1,2,3,4-tetrahydroisoquinoline-2-sulfonamide] | – | – | – | 122 | 3 to 300 | – | – |
| Cc1nc2ncnn2cc1Cc1ccc(S(C)(=N)=O)cc1 (centres unmarked) [Compound 70, imino(methyl)[4-({5-methyl-[1,2,4]triazolo[1,5-a]pyrimidin-6-yl}methyl)phenyl]-λ6-sulfanone] | – | – | – | 179 | 3 to 300 | – | – |
| Cc1nc2ncnn2c(C2CC2)c1Cc1ccc(S(C)(=N)=O)cc1 (centres unmarked) [Compound 71, [4-({7-cyclopropyl-5-methyl-[1,2,4]triazolo[1,5-a]pyrimidin-6-yl}methyl)phenyl](imino)methyl-λ6-sulfanone] | – | – | – | – | 3 to 300 | – | – |
| Cc1nc2nccn2c(N2CCCCC2)c1Cc1ccc(S(C)(=N)=O)cc1 (centres unmarked) [Compound 83, Imino(methyl)(4-{[7-methyl-5-(piperidin-1-yl)imidazo[1,2-a]pyrimidin-6-yl]methyl}phenyl)-λ^6-sulfanone] | – | – | – | 0.0978 | < 3 | – | – |
| Cc1nc2ncnn2c(N(C)C)c1-c1ccc2c(c1)CCN(S(N)(=O)=O)C2 [Compound 84, 6-[7-(dimethylamino)-5-methyl-[1,2,4]triazolo[1,5-a]pyrimidin-6-yl]-1,2,3,4-tetrahydroisoquinoline-2-sulfonamide] | – | – | – | 672 | > 300 | – | – |
| Cc1c(Cc2ccc(S(C)(=N)=O)cc2)c(N(C)C)nc2ncnn12 (centres unmarked) [Compound 86, (4-{[5-(dimethylamino)-7-methyl-[1,2,4]triazolo[1,5-a]pyrimidin-6-yl]methyl}phenyl)(imino)methyl-λ^6-sulfanone] | 8.29 | – | – | – | – | – | – |

More lines, main results first:

| Ki [1, 2] [nM] | Ki [1, 3] [nM] | Ki (ENPP-1 ECD; [4]) [nM] | Ki (ENPP-1 ECD; [5]) [nM] | Ki (ENPP-1 ECD; [6]) [nM] | SMILES | Ki [1] [nM] | Ki (ENPP-1 ECD) [nM] |
| --- | --- | --- | --- | --- | --- | --- | --- |
| 0.56 | < 10 | < 3 | 0.00806 | – | Cc1cc2ncnn2c(N(C)C)c1Cc1ccc([S@](C)(=N)=O)cc1 (single isomer, unassigned) [Compound 28a] | – | – |
| 1.59 | < 10 | < 3 | 0.0236 | – | Cc1nc2ncnn2c(N(C)C)c1Cc1ccc([S@@](C)(=N)=O)cc1 (single isomer, unassigned) [Compound 49a] | – | – |
| 0.298 | – | – | 0.00604 | – | Cc1c(Cc2ccc([S@@](C)(=N)=O)cc2)c(N(C)C)n2ncnc2c1C#N (single isomer, unassigned) [Compound 85a] | – | – |
| 3.15 | < 10 | < 3 | 0.106 | – | Cc1nc2nccn2c(N(C)C)c1Cc1ccc([S@](C)(=N)=O)cc1 [Compound 29a] | – | – |
| – | – | – | 0.982 | – | Cc1nc2ncnn2c(N(C)C)c1Cc1ccc([S@](=N)(=O)CCC(=O)O)cc1 [Compound 72b] | – | – |
| – | – | 3 to 300 | 9.97 | – | CN(C)c1c(Cc2ccc([S@](C)(=N)=O)cc2)c(Cl)nc2ncnn12 [Compound 74b] | – | – |
| – | – | 3 to 300 | 43 | – | Cc1c(Cc2ccc([S@](C)(=N)=O)cc2)c(N(C)C)n2ccnc2c1C#N [Compound 80b] | – | – |
| – | – | – | > 15 | – | COc1nc2ncnn2c(N(C)C)c1Cc1ccc([S@](C)(=N)=O)cc1 [Compound 88b] | – | – |
